Consider four compounds from US8193164B2, “Organic compounds” (Novartis AG, priority 2006, dated 2012).

pKi: −log10 of the molar value.

In this assay the target is adenosine A2A receptor (Homo sapiens, UniProt P29274). The assay is described as follows: adenosine A2A receptor agonist assay (method of Murphree et al, Molecular Pharmacology 61, 455-462 (2002)). It counts as binding. The conditions noted are these: method described by L. J. Murphree et al, Mol. Pharmacol. 61, 455-462 (2002). An excerpt: Compounds of formulae (I) and (II) and their pharmaceutically acceptable salts are useful as pharmaceuticals. In particular, they activate the adenosine A2A receptor, i.e. they act as A2A receptor agonists.
Chain of adenosine A2A receptor (P29274 whole entry): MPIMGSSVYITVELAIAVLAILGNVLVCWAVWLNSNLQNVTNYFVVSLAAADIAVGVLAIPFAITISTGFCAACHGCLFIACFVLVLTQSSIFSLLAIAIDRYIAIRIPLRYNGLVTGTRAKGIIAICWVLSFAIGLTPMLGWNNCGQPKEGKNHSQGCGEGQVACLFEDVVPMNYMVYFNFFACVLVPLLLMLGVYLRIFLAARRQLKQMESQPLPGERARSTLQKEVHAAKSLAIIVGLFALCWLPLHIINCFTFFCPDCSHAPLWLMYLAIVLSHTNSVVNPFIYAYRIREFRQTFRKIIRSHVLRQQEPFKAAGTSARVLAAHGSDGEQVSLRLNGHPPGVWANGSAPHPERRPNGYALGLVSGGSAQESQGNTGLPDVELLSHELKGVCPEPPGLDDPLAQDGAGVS
The pKi is the Ki on a negative log10 scale, so that one unit is a factor of ten. Lower therefore signals a high Ki. In turn, `CCC(=O)N[C@H]1C[C@@H](n2cnc3c(NCC(c4ccccc4)c4ccccc4)nc(N4CC[C@@H](NC(=O)NC5CCC(NC(=O)N[C@H]6CCN(c7nc(NCC(c8ccccc8)c8ccccc8)c8ncn([C@@H]9C[C@H](NC(=O)CC)[C@@H](O)[C@H]9O)c8n7)C6)CC5)C4)nc32)[C@H](O)[C@@H]1O` (stereo in doubt) [Example 15] showed a pKi of 7.15.
The result for `CCC(=O)N[C@H]1C[C@@H](n2cnc3c(NCC(c4ccccc4)c4ccccc4)nc(N4CC[C@@H](NC(=O)N[C@@H]5CCN(c6nc(NCC(c7ccccc7)c7ccccc7)c7ncn([C@@H]8C[C@H](NC(=O)CC)[C@@H](O)[C@H]8O)c7n6)C5)C4)nc32)[C@H](O)[C@@H]1O` [Example 1] reads 8.00; that for `CCC(=O)N[C@H]1C[C@@H](n2cnc3c(NCC(c4ccccc4)c4ccccc4)nc(N4CC[C@@H](NC(=O)NS(=O)(=O)N[C@@H]5CCN(c6nc(NCC(c7ccccc7)c7ccccc7)c7ncn([C@@H]8C[C@H](NC(=O)CC)[C@@H](O)[C@H]8O)c7n6)C5)C4)nc32)[C@H](O)[C@@H]1O` [Example 19], 7.22; that for `CCC(=O)N[C@H]1C[C@@H](n2cnc3c(NC(CO)Cc4ccccc4)nc(N4CC[C@@H](NC(=O)N[C@H]5CCN(c6nc(NC(CO)Cc7ccccc7)c7ncn([C@@H]8C[C@H](NC(=O)CC)[C@@H](O)[C@H]8O)c7n6)C5)C4)nc32)[C@H](O)[C@@H]1O` (stereo in doubt) [Example 7], 8.00.
